# In patent US9815878B2, “Use of PEDF-derived polypeptides for preventing and/or ameliorating skin aging” (MacKay Memorial Hospital, priority 2012, dated 2017):
# No end group written: not given here.
# What was measured:
# [1] = Transdermal delivery of FITC-conjugated 29-mer ointment with or without microneedle patch, fluorescent microscopy of skin; format: in vivo, C57BL/6 mice; settings: 24 hours later
# Experimental: The Fluorescein (FITC)-conjugated 29-mer peptide was used to investigate the in vivo transdermal delivery of the present PEDF peptides.
# First, the dorsal hair of 8-wk-old male C57BL/6 mice were removed using a melted wax/rosin mixture (1:1) under general anesthesia. On the next day, the ointment containing the FITC-conjugated 29-mer peptide (25 μM) was applied onto the dorsal skin of the mice, and then a microneedle patch (3M™ Microchannel Skin System; provided from 3M Singapore) was gently pressed against the dorsal skin so that the microneedles penetrated less than 100 microns into the skin (the FITC-29 mer/MN group). As to the control group (FITC-29 mer/CT), the mice received the ointment without subsequent microneedle treatment. Twenty-four hours later, the skin was harvested, fixed, cryosectioned and examined by fluorescent microscopy.
# The H&E stained section in the left panel of FIG. 1 highlights the epidermis and dermis of the specimen. The fluorescence images in the middle and right panels of FIG. 1 illustrate the distribution of FITC-conjugated 29-mer across the skin.
# [2] = test system: primary mouse dermal fibroblasts; assay: Dermal fibroblast proliferation in vitro, BrdU labeling assay; format: cell-based, C57BL/6 mouse; settings: 24 hours; for BrdU/Vimentin Labeling Index (%): 50 nM peptide in 1% FBS medium, BrdU 2 hours
# Experimental: (§1) Full-thickness skin tissue was obtained from the dorsum of C57BL/6 mouse. The subcutaneous tissue was carefully dissected from the skin and washed three times in sterile phosphate-buffered saline (PBS). The tissue was then cut into small pieces (1-2 mm^3). After being digested with 0.1% dispase at 4° C. overnight, the epidermal layers were removed, and the remaining dermal parts were further digested with 0.1% collagenase I at 37° C. for another 4 hours. The digested cells were then collected by centrifugation (400 g for 5 minutes) and resuspended in high-glucose DMEM supplemented with 10% FBS, 2 mM L-glutamine, and 1% penicillin-streptomycin antibiotic mixture. Cells were seeded onto tissue-culture plates (Falcon Labware; NJ, USA) at 1×10^3 cells/cm^2 and maintained at 37° C. with 5% CO2. After 24 hours, the medium was discarded to remove residual non-adherent cells, and cell culture was replenished with a fresh medium. For passage, near-confluent cells were harvested with 0.25% trypsin/EDTA.
# After fixing with 4% paraformaldehyde, cells were exposed to cold methanol for 2 minutes, and then treated with 1 N HCl at room temperature for 1 hour before performing immunofluorescence staining.
# BrdU-labeled DNA was detected by polyclonal anti-BrdU antibody and rhodamine-conjugated donkey anti-rabbit IgG. Nuclei were counterstained with Hoechst 33258 (blue).
# Primary mouse dermal fibroblasts were isolated and cultured as described in the “Materials and Methods” section. The dermal fibroblast at passage 2 were seeded at gelatin-coated slide in a 6-well plate at a density of 2×10^5 cells per well and cultured in growth medium (DMEM 10% FBS) for 24 hours before being replaced by a basal growth medium with 1% FBS only (control group) or with 1% FBS plus an additional 50 nM of PEDF-derived peptide (i.e., 29-mer, 24-mer, 20-mer, 18-mer, Mo 29-mer, or Mo 20-mer) for 24 hours. For BrdU labeling assay, BrdU (final concentration, 10 μM) was added to the culture for 2 hours. The level of BrdU- and vimentin-double positive cells was expressed as the percentage of BrdU- and vimentin-double positive cells per total vimentin-positive cells (the BrdU/Vimentin Labeling Index), and the results were summarized in Table 2.
# MMP-1 = assay: UVB-induced MMP-1 protein expression in WS-1 cells, western blotting; format: cell-based, human
# Experimental: Human skin fibroblast WS-1 cell line was obtained from Food Industry Research and Development Institute (Hsin-Chu, Taiwan). The WS-1 cells were maintained in a 37° C., 5% CO2 humidified incubator as monolayers in culture flasks. They were grown in 10% FBS-DMEM supplemented with 2 mM L-glutamine, 0.1 mM non-essential amino acids, 1% penicillin/streptomycin. For passage, near-confluent cells were sub-cultured by 0.25% trypsin/EDTA.
# Skin tissues were homogenized in ice-cold lysis buffer containing 20 mM HEPES (pH 7.4), 150 mM NaCl, 1% SDS, 1 mM ethylenediamine tetraacetic acid (EDTA), 5 mM phenylmethanesulfonyl fluoride (PMSF), and 1 mM dithiothreitol (DTT), 1% Triton X-100, with freshly added protease inhibitor cocktail (Roche, Indianapolis, Ind.). Homogenates were then centrifuged at 12,000 g for 30 minutes at 4° C., and supernatants were then collected and stored at −70° C. Protein contents in lysates were determined using the Bradford assay. Whole cell lysates were prepared using the above lysis buffer. Aliquots of the lysates were then resolved on a SDS-PAGE and then electrotransferred to polyvinylidene difluoride (PVDF) membranes (Millipore, Bedford, Mass., USA) and processed for immunoblot analysis.
# Antibodies used in the immunoblot study included anti-type I collagen 1A1 antibody (1:1000 dilution), anti-MMP-1 antibody (1:500 dilution) and anti-β-actin antibody (1:10000 dilution). Proteins of interest were detected using the appropriate IgG-HRP secondary antibody and ECL reagent (Amersham, Arlington Heights, Ill., USA). X-ray films were scanned on a Model GS-700 Imaging Densitometer (Bio-Rad Laboratories, Hercules, Calif.) and analyzed using Labworks 4.0 software. For quantification, blots from at least three independent experiments were used.
# WS-1 were seeded on a six-well plate at a density of 1×10^5 cells per well and grown in the 10% FBS-DMEM growth medium for 24 hours and then incubated with 1% FBS-DMEM supplemented with or without 100 nM PEDF peptide for further 24 hours. The cells were washed twice with phosphate buffered saline (PBS) and exposed to UVB radiation covered with PBS. The UVB treatment was conducted in a cell culture hood by using a UVB lamp (model XL-1000B, Spectrolinker™ Inc.) at a final dose of 15 mJ/cm^2 for about 100 seconds. Cell viability was assayed using trapan blue exclusion assay (>95%). After UVB irradiation, PBS was replaced with 1% FBS-DMEM with or without PEDF peptide for further 48 hours and then protein extracts were assayed by western blotting for the expression of MMP-1 protein. Cells that were not subjected to UVB irradiation were used as control (normal). The expression level of MMP-1 was normalized with the expression level in the Vehicle/UVB group (set to 100%), and quantitative results are summarized in Table 6.
# MMP-13 = assay: UVB-induced MMP-13 mRNA expression in primary mouse dermal fibroblasts, RT-PCR; format: cell-based
# Experimental: as §1
# The total RNA was extracted from cells using the TRIzol (Invitrogen) and treated with RNase-free DNase I (Qiagen, Santa Clarita, Calif.) to remove genomic DNA and then purified with an RNA purification kit (Dynabeads; Invitrogen). 1 μg of total RNA retrieved from primary dermal fibroblast was reverse-transcribed into cDNA by 200 units of expand Reverse-Transcriptase (Roche, Mannheim, Germany) in 20 μl of reaction buffer containing 0.25 μg of random primers and 0.8 mM dNTPs at 42° C. for 1 hour. 2 μl of the cDNA was used for the PCR reaction as templates. PCR was performed in a 30 μl volume containing 15 μl of EconoTaq® PLUS GREEN 2× Master Mix (Lucigen® Corp.), 1 μM of each primer and 2 μl of template DNA. cDNA was synthesized in an 18-22 cycle amplification reaction (denaturation, 20 s, 94° C.; annealing, 30 s, 57° C.; and polymerization, 40 s, 72° C.). The number of cycles for the primer set was chosen to be in the linear range of amplification. The sequences of specific PCR primers were mouse MMP-13 (accession number: NM_008607) sense, […] (SEQ ID NO: 12); antisense, […] (SEQ ID NO: 13); PCR product: 201 bp; and mouse glyceraldehyde 3-phosphate dehydrogenase (GAPDH; accession number: M32599) sense, […] (SEQ ID NO: 14); and anti-sense, […] (SEQ ID NO: 15); PCR product: 223 bp.). The PCR products were electrophoresed in a 2% agarose gel containing ethidium bromide and visualized by UV illumination. The intensities of the PCR products were quantified densitometrically using a FUJI LAS-3000 system and Multi Gauge Ver. 1.01 software (Fujifilm, Tokyo, Japan).
# Primary mouse dermal fibroblasts in passage 2 of monolayer cultures were incubated with 1% FBS-DMEM supplemented with or without 100 nM PEDF peptide for 24 hours, and then subjected to UVB irradiation as described above. After UVB irradiation, PBS was replaced with 1% FBS-DMEM with or without PEDF peptide for further 24 hours, and then cellular total RNAs were extracted for subsequent RT-PCR analysis. The expression level of MMP-13 mRNA was normalized with the expression level in the Vehicle/UVB group (set to 100%), and quantitative results are summarized in Table 7.
substance,measurement,setting,value
"FITC-conjugated 29-mer: Fluorescein (FITC)-conjugated 29-mer peptide used to investigate in vivo transdermal delivery (SLGAEQRTESIIHRALYYDLISSPDIHGT; also: FITC conjugated, site not given here)",distribution of fluorescein signal across the skin (delivery to dermis),[1]; ointment 25 μM on dorsal skin plus microneedle patch (FITC-29 mer/MN),successfully delivered to the dermis
same,distribution of fluorescein signal across the skin (delivery to dermis),[1]; ointment 25 μM on dorsal skin without microneedle treatment (FITC-29 mer/CT),barely detectable in the dermis
"SLGAEHRTESVIHRALYYDL [Mo 20-mer, synthetic peptide derived from mouse PEDF]",BrdU/Vimentin Labeling Index (%),[2],11.3 ± 1.6 %
"SLGAEHRTESVIHRALYYDLITNPDIHST [Mo 29-mer, synthetic peptide derived from mouse PEDF]",BrdU/Vimentin Labeling Index (%),[2],11.1 ± 2.0 %
"SLGAEQRTESIIHRALYYDLISSP [24-mer, synthetic peptide corresponding to residues 93-116 of human PEDF]",MMP-1 Expression Level (%),"MMP-1; 100 nM peptide 24 h before and 48 h after UVB 15 mJ/cm^2, Vehicle/UVB set to 100%",48 ± 7.2 %
same,MMP-1 protein level relative to vehicle/UVB group,"MMP-1; pre-incubation with peptide, UVB",about half
same,MMP-13 Expression Level (%),"MMP-13; 100 nM peptide 24 h before and 24 h after UVB 15 mJ/cm^2, mRNA, Vehicle/UVB set to 100%",16.3 ± 1.5 %
same,effect on UVB-induced upregulation of MMP-13,"MMP-13; cells pretreated with peptide, UVB",substantially reduced
same,BrdU/Vimentin Labeling Index (%),[2],10.1 ± 1.9 %
same,proliferation relative to control medium,[2]; 50 nM peptide,about 5 fold
